The text below walks through data of ChEMBL document CHEMBL1201862, “PubChem BioAssay data set” (2004).

Among the test systems are SK-OV-3; HOP-92; SK-MEL-2; HOP-62; K562; NCI-H226; PC-3; M14; U-251; HCT-116; SF-268; SF-295; KM12; OVCAR-4; BT-549; NCI-H522; IGROV-1; UO-31; OVCAR-8; MDA-N.
Common to all, as to assay: NCI-60 cell line screen, 48 h

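Step 1: Grow cells in 96-well plates. Step 2: Expose to compound for 48 hours at 5 concentrations. Step 3: Interpolate endpoints linearly; if unreached, use highest concentration. GI50 = concentration required for 50% inhibition of growth.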 Active and inactive are the calls of the source. Rule as the data show it: active = GI50 up to about 1.1 µM and inactive = higher.

Consider `CCOc1ccc2c(ccc(/C=C/c3cc(C)c4cccnc4c3O)[n+]2C)c1`, for which the GI50 in the test with SK-OV-3 is 1.8 µM (inactive); with HOP-92 it was 0.881 µM (active); in the test on SK-MEL-2, 0.498 µM (active); in the test on HOP-62 it was 1.14 µM (inactive); in the test with K562 it was 0.495 µM (active); in the test on NCI-H226, 0.859 µM (active). Also, the GI50 in the test on PC-3 is 0.773 µM (active); in the test on M14, 0.836 µM (active); with U-251 it was 0.18 µM (active); in the test on HCT-116 it was 0.317 µM (active); with SF-268, 0.736 µM (active); in the test with SF-295, 1.24 µM (inactive). For the same compound, the GI50 is 0.908 µM (active) in the test with KM12; 1.7 µM (inactive) in the test on OVCAR-4; 1.52 µM (inactive) in the test with BT-549; 0.583 µM (active) in the test on NCI-H522; 0.675 µM (active) with IGROV-1; 8.09 µM (inactive) in the test with UO-31. Further, the GI50 with OVCAR-8 was 0.301 µM (active).
In the case of `CCc1n[nH]c(=O)n1NC(=O)/C=C\C(=O)O`, the GI50 with SK-OV-3, in the test on SK-MEL-2, in the test with HOP-62, in the test on K562, in the test with NCI-H226 and with PC-3 was > 100 µM (inactive) throughout. The GI50 with M14, with U-251, with MDA-N, in the test on HCT-116, with SF-268 and in the test on SF-295 was > 100 µM (inactive) in each case. For the same compound, the GI50 in the test with OVCAR-4, with BT-549, with NCI-H522, with IGROV-1 and in the test on OVCAR-8 was > 100 µM (inactive) throughout.
Take `O=C1Nc2cccc(Cl)c2/C1=C\c1c(-c2ccccc2)nc2n1CCS2`: the GI50 in the test on SK-OV-3 was 24.4 µM (inactive); with HOP-92 it was 20 µM (inactive); in the test with SK-MEL-2, 20.3 µM (inactive); in the test on HOP-62, 25.9 µM (inactive); in the test on K562 it was 17.2 µM (inactive); in the test on PC-3, 18.6 µM (inactive). Further, the GI50 in the test on M14 is 20.9 µM (inactive); with U-251, 19.6 µM (inactive); with MDA-N, 18.5 µM (inactive); in the test with HCT-116, 20.2 µM (inactive); in the test with SF-268 it was 20.3 µM (inactive); with SF-295, 28.7 µM (inactive). The GI50 with KM12 is 20.8 µM (inactive); with BT-549 it was 22.1 µM (inactive); with NCI-H522 it was 30.2 µM (inactive); in the test on IGROV-1, 12.8 µM (inactive); in the test on UO-31, 19.1 µM (inactive); in the test with OVCAR-8, 24.7 µM (inactive).
Regarding `O=C(O)c1ccccc1NC(=S)c1ccccc1`, the GI50 is 76.4 µM (inactive) in the test with SK-OV-3; 11.8 µM (inactive) with HOP-92; 50.4 µM (inactive) in the test on HOP-62; 39.2 µM (inactive) in the test with K562; 34.5 µM (inactive) in the test on PC-3; 70.5 µM (inactive) in the test on M14. Moreover, the GI50 in the test with U-251 is 47.8 µM (inactive); with MDA-N, 38.7 µM (inactive); in the test with HCT-116, 48.3 µM (inactive); with SF-268, 64 µM (inactive); in the test on SF-295 it was 35.2 µM (inactive); in the test with KM12 it was 50.2 µM (inactive). The GI50 in the test on OVCAR-4 is 0.0592 µM (active); in the test on BT-549, 33 µM (inactive); in the test with NCI-H522 it was 13.5 µM (inactive); with IGROV-1 it was 25.1 µM (inactive); in the test on UO-31, 51.8 µM (inactive); with OVCAR-8, 33.9 µM (inactive).
On to `c1ccc2c(c1)-c1ccccc1C2NC1=NCCO1`, for which the GI50 with SK-OV-3 was 31.4 µM (inactive); in the test with HOP-92, 13.9 µM (inactive); in the test with SK-MEL-2, 18.8 µM (inactive); in the test with HOP-62 it was 22.5 µM (inactive); with K562, 32.8 µM (inactive); in the test with NCI-H226, 23.8 µM (inactive). The GI50 in the test on PC-3 was 20.5 µM (inactive); in the test on M14 it was 17.2 µM (inactive); in the test on U-251, 31.3 µM (inactive); in the test with MDA-N, 11.8 µM (inactive); in the test with HCT-116, 16.7 µM (inactive); in the test with SF-268 it was 30 µM (inactive). Also, the GI50 in the test with SF-295 is 31.4 µM (inactive); with KM12, 14.2 µM (inactive); with OVCAR-4, 25.2 µM (inactive); in the test on NCI-H522, 25.6 µM (inactive); in the test with IGROV-1 it was 16.4 µM (inactive); in the test with UO-31, 24.1 µM (inactive). Also, the GI50 in the test on OVCAR-8 is 20.8 µM (inactive).
Consider `N#Cc1nc(CCC(C(=O)O)N2C(=O)c3ccccc3C2=O)oc1N` (stereo not drawn), for which the GI50 with SK-OV-3, in the test with HOP-92, with SK-MEL-2, in the test with HOP-62, in the test on K562 and in the test on NCI-H226 was > 100 µM (inactive) each time. For the same compound, the GI50 is > 100 µM (inactive) in the test with PC-3; > 100 µM (inactive) in the test with M14; > 100 µM (inactive) in the test on U-251; > 100 µM (inactive) with MDA-N; > 10 µM (inactive) in the test on HCT-116; > 100 µM (inactive) in the test on SF-268. For the same compound, the GI50 in the test on SF-295, in the test with KM12, in the test on OVCAR-4, in the test on NCI-H522, with IGROV-1 and in the test on UO-31 was > 100 µM (inactive) each time. The GI50 in the test on OVCAR-8 was > 100 µM (inactive).
With `O=C(O)C1C2CCC(O2)C1C(=O)NCc1cccnc1` (stereo not drawn), the GI50 in the test on SK-OV-3, in the test with SK-MEL-2, in the test on HOP-62, in the test with PC-3, with M14 and with U-251 was > 100 µM (inactive) each time. Also, the GI50 with MDA-N, with HCT-116, in the test on SF-295, in the test on KM12, with OVCAR-4 and in the test with BT-549 was > 100 µM (inactive) throughout. The GI50 in the test with NCI-H522 and in the test with UO-31 was > 100 µM (inactive) in each case.
Turning to `CC(=O)Oc1c(C)cc2c(c1C)C(C)(C)CN2C(=O)C(C)(C)C`, the GI50 in the test on SK-OV-3 was > 100 µM (inactive); with HOP-92, 20.1 µM (inactive); in the test on SK-MEL-2, > 100 µM (inactive); in the test with HOP-62, > 100 µM (inactive); in the test on K562, 51.9 µM (inactive); with NCI-H226, 38.5 µM (inactive). Besides, the GI50 in the test on PC-3 was 35.1 µM (inactive); with M14, 65.9 µM (inactive); in the test on U-251 it was > 100 µM (inactive); in the test with MDA-N, > 100 µM (inactive); in the test on HCT-116, 67.9 µM (inactive); with SF-268, > 100 µM (inactive). Moreover, the GI50 was > 100 µM (inactive) in the test on SF-295; > 100 µM (inactive) in the test with KM12; 71.8 µM (inactive) in the test on OVCAR-4; > 100 µM (inactive) with NCI-H522; > 100 µM (inactive) in the test with IGROV-1; 41.8 µM (inactive) in the test on UO-31. Further, the GI50 in the test with OVCAR-8 was > 100 µM (inactive).
Regarding `O=C1CN(c2cccc(Cl)c2)C(=O)CN1CCN1CC(=O)N(c2cccc(Cl)c2)CC1=O`, the GI50 in the test with SK-OV-3, with HOP-92, with HOP-62, in the test on PC-3, with M14 and in the test on U-251 was > 100 µM (inactive) throughout. For the same compound, the GI50 in the test on MDA-N, in the test with HCT-116, with SF-268, in the test with SF-295, in the test with KM12 and in the test with OVCAR-4 was > 100 µM (inactive) in each case. Besides, the GI50 with BT-549, with NCI-H522, with IGROV-1, with UO-31 and with OVCAR-8 was > 100 µM (inactive) each time.
On to `c1cncc(C2(c3cc4ccccc4[nH]3)COCO2)c1` (stereo not drawn), for which the GI50 in the test with SK-OV-3, in the test on HOP-92, in the test on SK-MEL-2, in the test on HOP-62, in the test with K562 and with NCI-H226 was > 100 µM (inactive) throughout. Moreover, the GI50 with PC-3 is 94.2 µM (inactive); with M14 it was > 100 µM (inactive); in the test with U-251, > 100 µM (inactive); in the test on HCT-116, 71 µM (inactive); in the test on SF-268 it was > 100 µM (inactive); with SF-295, > 100 µM (inactive). For the same compound, the GI50 in the test on KM12 was > 100 µM (inactive); in the test on OVCAR-4 it was 65 µM (inactive); in the test on BT-549, > 100 µM (inactive); with IGROV-1, > 100 µM (inactive); in the test with UO-31, 58.3 µM (inactive); with OVCAR-8, > 100 µM (inactive).
For the compound `CCOC(=O)c1c(NS(=O)(=O)c2ccccc2)sc2c1CCCC2`, the GI50 is 68.1 µM (inactive) in the test on SK-MEL-2; 46.5 µM (inactive) in the test on HOP-62; 30.8 µM (inactive) in the test on K562; > 100 µM (inactive) in the test on NCI-H226; 39.5 µM (inactive) with PC-3; 81.3 µM (inactive) in the test on M14. The GI50 in the test with MDA-N was > 100 µM (inactive); in the test on HCT-116, 37.7 µM (inactive); with SF-268, 64.9 µM (inactive); in the test with SF-295, 43.6 µM (inactive); in the test with KM12, 22.1 µM (inactive); in the test with BT-549, > 100 µM (inactive). Further, the GI50 in the test with IGROV-1 was 54.8 µM (inactive); with UO-31 it was 70.5 µM (inactive); in the test on OVCAR-8, 56.8 µM (inactive).
